“Also recorded” adds a separate entry of the source. Structures can show the parent of a compound that is named as a salt. Where two headings read alike, the source gives them in different places.
How the values were obtained:
[1] = molecular target: MMP-3 (Homo sapiens (Human), UniProt P08254); assay: Enzyme inhibition studies, MMP-3 catalytic domain; format: biochemical; details: at 100 μM; listed as ND-336, HCl salt
[2] = test system: diabetic (db/db) mice; assay: Mouse diabetic wound model; format: in vivo; details: compared with ND-322; in words
Text: The excisional mouse diabetic model validated by Sullivan et al. was used (Sullivan et al., Plast. Reconstr. Surg. (2004) 113, 953-960). The procedure for inflicting the wounds (single 8 mm wound on the dorsal region) was the same as described previously (Gooyit et al., ACS Chem. Biol. (2014) 9, 505-510). Wounds were photographed and covered with a sterile 3M Tegaderm™ transparent dressing (Butler Schein Animal Health, Inc.).
Female diabetic db/db (BKS.Cg-Dock7m+/+Leprdb/J, 8-weeks old, 38±3 g, n=24) were used for this study. Wounds were inflicted as described. Treatment with the MMP-2 inhibitor (50 μL of 5.0 mg/mL in 80% propylene glycol/20% DMSO, equivalent to 0.25 mg per wound) or vehicle (50 μL of 80% propylene glycol/20% DMSO) was started one day after wound infliction and continued once a day for 14 days. Digital photographs of wounds were taken on days 0, 7, 10, and 14 while the animals were under isoflurane anesthesia. On day 14, all mice were sacrificed. The wounds were excised, embedded in optimal cutting temperature (OCT) compound, and cryosectioned for histological evaluation.
Female diabetic db/db (BKS.Cg-Dock7m+/+Leprdb/J, 8-weeks old, 38±3 g, n=24) were used for this study. Wounds were inflicted and the following day the wounds were treated topically with MMP-8 (50 μL of 20 μg/mL MMP-8 in reaction buffer) or vehicle (50 μL reaction buffer) once a day for 14 days. The reaction buffer consisted of 50 mM Tris (pH 7.5), 10 mM CaCl2, 150 mM NaCl, and 0.05% (w/v) Brij-35. Digital photographs of the wounds were taken on days 0, 7, 10, and 14 while animals were under isoflurane anesthesia. On days 7 and 14, 12 mice (n=6 per group) were sacrificed. The wounds were excised, embedded in OCT compound, and cryosectioned for histological evaluation.
Photographs were taken using the procedure described by Gooyit et al. (ACS Chem Biol. (2014) 9, 505-510) at a fixed distance above the wounds and calibrated using a ruler included in the photographic frame. Image J 1.48c software was used to calculate wound areas. The percentage of wound closure was calculated from the wound area on the specified day relative to that on day 0.
Fresh wound tissue was harvested and embedded in OCT compound. Subsequently, the tissue was cryosectioned for H&E staining (12-μm thickness) and for apoptosis assays and in-situ zymography (8-μm thickness). Re-epithelialization was assessed on a Nikon Eclipse 90i Fluorescent Microscope (Nikon Instruments Inc.) as described earlier (Tkalcevic et al., Toxicol. Pathol. (2009) 37, 183-192). Apoptosis was evaluated using Derma TACS™ Apoptosis detection kits (Trevigen, Inc.) according to the manufacturer's instructions. The protocol of in-situ zymography was adapted from known methods. Gelatinolytic activity was detected in unfixed cryostat sections using DQ-gelatin as a substrate. DQ-gelatin was prepared at a concentration of 20 μg/mL in Tris-buffered saline (TBS) buffer (50 mM TBS pH 7.6, 1 mM CaCl2). A general MMP inhibitor in 0.5 mM EDTA was prepared as a negative control. Cryostat sections were air-dried for 10 min and incubated in the substrate mixture in the presence and absence of EDTA for 1 hr at room temperature. After the incubation period, the slides were washed in PBS (three times, 5 min each), fixed with 4% paraformaldehyde in PBS for 10 min in the dark, washed again with PBS (three times, 5 min each), incubated in the dark for 5 min with 300 nM DAPI solution, and mounted with anti-quenching mounting medium. Fluorescence of FITC was detected with excitation at 460-500 nm and emission at 512-542 nm. DAPI was detected with excitation at 340-380 nm and emission at 425-∞ nm.
Data are expressed as mean±SD. Wound healing between the groups in the studies were analyzed for statistical significance using a paired Student t-test, where p<0.05 was considered statistically significant.

[3] = molecular target: MMP-1 (Homo sapiens (Human), UniProt P03956); assay: Enzyme inhibition studies, MMP-1 catalytic domain; format: biochemical; details: at 100 μM; listed as ND-336, HCl salt
MMP-1, sequence (P03956 98-276): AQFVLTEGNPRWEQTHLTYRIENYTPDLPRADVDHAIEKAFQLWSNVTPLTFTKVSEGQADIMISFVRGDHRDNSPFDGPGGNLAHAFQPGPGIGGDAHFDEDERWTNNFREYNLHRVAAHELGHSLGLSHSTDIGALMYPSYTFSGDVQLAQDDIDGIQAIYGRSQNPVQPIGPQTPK

[4] = molecular target: MMP-7 (Homo sapiens (Human), UniProt P09237); assay: Enzyme inhibition studies, MMP-7; format: biochemical; details: at 100 μM; listed as ND-336, HCl salt
MMP-7, sequence (P09237 95-267): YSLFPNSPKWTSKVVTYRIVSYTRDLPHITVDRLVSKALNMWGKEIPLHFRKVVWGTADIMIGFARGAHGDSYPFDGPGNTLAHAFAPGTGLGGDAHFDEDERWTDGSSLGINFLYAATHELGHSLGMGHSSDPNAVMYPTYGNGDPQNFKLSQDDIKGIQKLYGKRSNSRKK

[5] = molecular target: MMP-9 (Homo sapiens (Human), UniProt P14780); assay: Gel experiment, cleavage of tau by MMP-9; format: biochemical; details: in words
MMP-9, sequence (P14780 94-707, species assumed): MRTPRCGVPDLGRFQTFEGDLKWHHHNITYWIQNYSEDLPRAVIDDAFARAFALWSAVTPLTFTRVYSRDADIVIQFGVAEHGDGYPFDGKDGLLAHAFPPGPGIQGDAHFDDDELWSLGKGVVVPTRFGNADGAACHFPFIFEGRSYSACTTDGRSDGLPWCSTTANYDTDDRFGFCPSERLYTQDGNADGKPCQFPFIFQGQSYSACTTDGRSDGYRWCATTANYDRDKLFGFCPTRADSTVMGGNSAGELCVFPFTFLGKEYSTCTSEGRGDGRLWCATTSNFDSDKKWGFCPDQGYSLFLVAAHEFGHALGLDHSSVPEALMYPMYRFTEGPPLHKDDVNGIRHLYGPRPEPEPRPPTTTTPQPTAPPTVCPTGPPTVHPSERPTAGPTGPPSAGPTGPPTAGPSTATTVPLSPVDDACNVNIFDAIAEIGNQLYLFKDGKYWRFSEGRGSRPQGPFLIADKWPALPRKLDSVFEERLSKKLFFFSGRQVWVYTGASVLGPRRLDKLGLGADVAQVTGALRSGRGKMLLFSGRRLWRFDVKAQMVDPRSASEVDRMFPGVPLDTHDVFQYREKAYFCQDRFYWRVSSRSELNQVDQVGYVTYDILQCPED

[6] = molecular target: ADAM9 (Homo sapiens (Human), UniProt Q13443); assay: Enzyme inhibition studies, ADAM9; format: biochemical; details: at 100 μM; listed as ND-336, HCl salt
ADAM9, sequence (Q13443 206-697): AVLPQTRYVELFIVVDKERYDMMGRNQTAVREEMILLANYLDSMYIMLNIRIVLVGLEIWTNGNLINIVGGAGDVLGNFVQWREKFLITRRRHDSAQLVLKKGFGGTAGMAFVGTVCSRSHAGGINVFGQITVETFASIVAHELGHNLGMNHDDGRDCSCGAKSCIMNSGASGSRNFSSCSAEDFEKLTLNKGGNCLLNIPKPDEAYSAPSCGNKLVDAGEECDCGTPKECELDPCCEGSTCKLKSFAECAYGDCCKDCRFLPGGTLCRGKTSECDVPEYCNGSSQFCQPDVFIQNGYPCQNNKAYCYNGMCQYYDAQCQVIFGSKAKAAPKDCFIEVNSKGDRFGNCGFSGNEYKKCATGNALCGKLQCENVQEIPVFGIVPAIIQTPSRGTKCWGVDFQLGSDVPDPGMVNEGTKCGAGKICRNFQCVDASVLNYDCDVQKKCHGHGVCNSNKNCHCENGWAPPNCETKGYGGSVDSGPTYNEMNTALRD

[7] = molecular target: MMP-2 (Homo sapiens (Human), UniProt P08253); assay: Enzyme inhibition studies, MMP-2; format: biochemical; details: slow-binding, Ki calculated from koff/kon
MMP-2, sequence (P08253 110-660): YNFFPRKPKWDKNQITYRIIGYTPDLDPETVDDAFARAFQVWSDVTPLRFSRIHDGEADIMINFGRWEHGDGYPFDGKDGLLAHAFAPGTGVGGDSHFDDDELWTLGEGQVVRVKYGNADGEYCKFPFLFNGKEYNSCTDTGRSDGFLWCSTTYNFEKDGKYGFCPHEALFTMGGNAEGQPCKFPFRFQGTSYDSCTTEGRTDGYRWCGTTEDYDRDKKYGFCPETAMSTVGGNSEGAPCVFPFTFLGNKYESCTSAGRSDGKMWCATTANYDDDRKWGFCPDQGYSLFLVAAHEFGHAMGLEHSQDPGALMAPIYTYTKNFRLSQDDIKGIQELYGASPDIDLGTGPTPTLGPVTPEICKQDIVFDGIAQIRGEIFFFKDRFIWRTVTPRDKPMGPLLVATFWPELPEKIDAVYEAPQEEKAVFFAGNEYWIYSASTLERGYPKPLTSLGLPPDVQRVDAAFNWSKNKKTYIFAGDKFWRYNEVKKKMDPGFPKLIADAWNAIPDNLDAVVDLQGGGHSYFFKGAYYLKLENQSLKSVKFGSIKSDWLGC

[8] = Pharmacokinetics and brain distribution after single iv dose
Method: Mice (male CD-1, 6-7 weeks old, ˜30 g body weight, specific pathogen free) were purchased from Charles River Laboratories, Inc. (Wilmington, Mass., USA).
Samples were analyzed by ultraperformance liquid chromatography (UPLC)/(+)electrospray ionization (ESI)-multiple-reaction monitoring (MRM) with a reversed phase C18 column (Acclaim® RSLC 120 C18, 2.2 μm, 120 Å, 2.1×100 mm, Dionex, Sunnyvale, Calif., USA).
Quantification of the compounds in plasma and brain was obtained using peak-area ratios of the compounds to the internal standard, and the linear-regression parameters obtained from the calibration curves.

[9] = Water solubility (filtrate of saturated aqueous solution, UPLC-MRM)
[10] = molecular target: ADAM10 (Homo sapiens (Human), UniProt O14672); assay: Enzyme inhibition studies, ADAM10; format: biochemical; details: at 100 μM; listed as ND-336, HCl salt
ADAM10, sequence (O14672 214-672): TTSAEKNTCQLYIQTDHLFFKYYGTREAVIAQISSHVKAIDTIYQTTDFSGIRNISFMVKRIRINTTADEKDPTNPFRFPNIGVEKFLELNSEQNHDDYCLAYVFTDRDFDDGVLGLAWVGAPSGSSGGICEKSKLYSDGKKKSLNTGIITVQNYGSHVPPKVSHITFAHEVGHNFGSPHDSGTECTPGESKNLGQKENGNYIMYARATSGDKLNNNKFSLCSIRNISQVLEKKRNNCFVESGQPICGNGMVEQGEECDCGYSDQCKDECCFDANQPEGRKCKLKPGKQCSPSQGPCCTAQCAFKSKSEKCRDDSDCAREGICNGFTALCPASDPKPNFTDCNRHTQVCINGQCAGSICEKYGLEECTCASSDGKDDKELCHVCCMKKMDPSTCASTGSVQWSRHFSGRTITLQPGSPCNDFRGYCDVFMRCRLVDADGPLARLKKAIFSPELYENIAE

[11] = molecular target: MMP-14 (Homo sapiens (Human), UniProt P50281); assay: Enzyme inhibition studies, MMP-14 catalytic domain; format: biochemical
[12] = male, CD-1, mouse, in vivo, 5 mg/kg
[13] = male, CD-1, mouse, in vivo, iv, 5 mg/kg
[14] = plasma, 5 mg/kg single iv, mice

MMP-3, sequence (P08254 100-272): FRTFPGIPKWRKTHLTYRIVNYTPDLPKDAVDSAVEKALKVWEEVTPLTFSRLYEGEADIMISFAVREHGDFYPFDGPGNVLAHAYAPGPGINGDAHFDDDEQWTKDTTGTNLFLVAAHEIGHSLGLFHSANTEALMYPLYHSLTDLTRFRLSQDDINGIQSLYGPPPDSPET

Question: For `NCc1ccc(Oc2ccc(S(=O)(=O)CC3CS3)cc2)cc1` (stereo not shown) [Compound 5, (4-(4-((Thiiran-2-ylmethyl)sulfonyl)phenoxy)phenyl)methanamine HCl salt], which Inhibition [1] is on record?
Answer: Its Inhibition is “Ki (MMP-3) 23% inhibition at 100 μM”.

Question: What about the “efficacy in mouse model of diabetic wound healing” value [2] of the same compound?
Answer: The value was “significantly better efficacy than ND-322”.

Question: And the Inhibition [3]?
Answer: Its Inhibition is “Ki (MMP-1) 4% inhibition at 100 μM”.

Question: And the Inhibition [4]?
Answer: The Inhibition was “Ki (MMP-7) 1% inhibition at 100 μM”.

Question: And the “cleavage of tau in the presence of MMP-9” value [5]?
Answer: The value was “prevents cleavage of tau”.

Question: And the Inhibition [6]?
Answer: Its Inhibition is “Ki (ADAM-9) 31% inhibition at 100 μM”.

Question: And the Ki ([7]; Ki)?
Answer: Its Ki is 85 ± 1 nM.

Question: What about the Ki [7] of the same compound?
Answer: The Ki was 85 nM.

Question: And the “time brain levels above Ki for MMP-2” value ([8]; 5 mg/kg single iv, mice)?
Answer: The value was “at least 30 min”.

Question: And the “time brain levels above Ki for MMP-9” value ([8]; 5 mg/kg single iv, mice)?
Answer: Its value is “at least 30 min”.

Question: And the “time plasma levels above Ki for MMP-2” value ([8]; 5 mg/kg single iv, mice)?
Answer: The value was “at least 30 min”.

Question: What about the “time plasma levels above Ki for MMP-9” value ([8]; 5 mg/kg single iv, mice) of the same compound?
Answer: Its value is “at least 30 min”.

Question: What about the Brain concentration ([8]; 2 min after 5 mg/kg single iv, mice) of the same compound?
Answer: Its Brain concentration is 5.55 ± 2.38 pmol/mg tissue.

Question: What about the Brain concentration ([8]; 5 min after 5 mg/kg single iv, mice) of the same compound?
Answer: Its Brain concentration is 2.97 ± 2.41 pmol/mg tissue.

Question: What about the Brain concentration ([8]; 10 min after 5 mg/kg single iv, mice) of the same compound?
Answer: The Brain concentration was 1.20 ± 0.50 pmol/mg tissue.

Question: And the Brain concentration ([8]; 30 min after 5 mg/kg single iv, mice)?
Answer: The Brain concentration was 0.213 ± 0.143 pmol/mg tissue.

Question: What about the Brain concentration ([8]; 60 min after 5 mg/kg single iv, mice) of the same compound?
Answer: The Brain concentration was 0.0368 ± 0.0232 pmol/mg tissue.

Question: And the Brain concentration ([8]; 90 min after 5 mg/kg single iv, mice)?
Answer: The Brain concentration was 0.0213 ± 0.0106 pmol/mg tissue.

Question: And the Brain concentration ([8]; 120 min after 5 mg/kg single iv, mice)?
Answer: Its Brain concentration is 0.0158 ± 0.0125 pmol/mg tissue.

Question: And the Brain concentration ([8]; 240 min after 5 mg/kg single iv, mice)?
Answer: Its Brain concentration is 0.00531 ± 0.00402 pmol/mg tissue.

Question: And the AUC0-last ([8]; brain, 5 mg/kg single iv, mice)?
Answer: The AUC0-last was 57.7 pmol·min/mg.

Question: What about the “AUC0-∞” value ([8]; brain, 5 mg/kg single iv, mice) of the same compound?
Answer: The value was 58.3 pmol·min/mg.

Question: And the t1/2α ([8]; brain, 5 mg/kg single iv, mice)?
Answer: The t1/2α was 3.32 min.

Question: And the t1/2β ([8]; brain, 5 mg/kg single iv, mice)?
Answer: Its t1/2β is 75.3 min.

Question: What about the “crossing of the blood-brain barrier” value ([8]; in words, listed as ND-336, HCl salt) of the same compound?
Answer: The value was “cross the blood-brain barrier; also recorded: crosses the BBB”.

Question: What about the concentration at 2 min [8, 12] of the same compound?
Answer: Its concentration at 2 min is 4350 ± 1100 nM.

Question: What about the concentration at 5 min [8, 12] of the same compound?
Answer: The concentration at 5 min was 3150 ± 1490 nM.

Question: What about the concentration at 10 min [8, 12] of the same compound?
Answer: Its concentration at 10 min is 2390 ± 820 nM.

Question: And the concentration at 30 min [8, 12]?
Answer: The concentration at 30 min was 377 ± 116 nM.

Question: And the concentration at 60 min [8, 12]?
Answer: The concentration at 60 min was 57.4 ± 31.6 nM.

Question: And the concentration at 90 min [8, 12]?
Answer: The concentration at 90 min was 33.2 ± 6.5 nM.

Question: What about the concentration at 120 min [8, 12] of the same compound?
Answer: Its concentration at 120 min is 21.8 ± 5.4 nM.

Question: And the concentration at 240 min [8, 12]?
Answer: Its concentration at 240 min is 6.94 ± 6.06 nM.

Question: What about the AUC(0-inf) [8, 13] of the same compound?
Answer: Its AUC(0-inf) is 1.23 µM·h.

Question: What about the AUC(0-t) [8, 13] of the same compound?
Answer: The AUC(0-t) was 1.22 µM·h.

Question: And the Kp [8, 13]?
Answer: Its Kp is 0.793.

Question: And the Vd [8, 13]?
Answer: Its Vd is 2.76 L/kg.

Question: What about the clearance [8, 13] of the same compound?
Answer: Its clearance is 202 mL/min/kg.

Question: And the AUC0-last [8, 14]?
Answer: The AUC0-last was 72.9 µM·min.

Question: And the “AUC0-∞” value [8, 14]?
Answer: Its value is 73.6 µM·min.

Question: What about the CL [8, 14] of the same compound?
Answer: The CL was 202 mL/min/kg.

Question: What about the t1/2α [8, 14] of the same compound?
Answer: The t1/2α was 6.47 min.

Question: What about the t1/2β [8, 14] of the same compound?
Answer: Its t1/2β is 68.0 min.

Question: What about the Aq. solubility ([9]; HCl salt) of the same compound?
Answer: Its Aq. solubility is 4900 µg/mL.

Question: And the Aq. solubility ([9]; listed as ND-336, HCl salt)?
Answer: The Aq. solubility was “Water Solubility 4.9 mg/mL”.

Question: What about the solubility ([9]; thermodynamic from solid) of the same compound?
Answer: Its solubility is 4900 µg/mL.

Question: What about the Inhibition [10] of the same compound?
Answer: The Inhibition was “Ki (ADAM-10) 14% inhibition at 100 μM”.

Question: And the Ki [11]?
Answer: The Ki was 120 ± 10 nM.

Question: What about the Ki ([11]; catalytic domain, slow-binding, Ki from koff/kon) of the same compound?
Answer: Its Ki is 120 nM.
